These results are taken from ChEMBL document CHEMBL1629464, “Aldehyde oxidase: an enzyme of emerging importance in drug discovery” (J Med Chem, 2010).

A short description of data set [1]: Oral bioavailability in dog. The data set is classed as ADME, organism-based, Canis lupus familiaris. The following applies: in vivo.
Data set [2] addresses T1, Aldehyde oxidase 1 (Macaca fascicularis, UniProt Q5FB27).
T1 sequence (Q5FB27 whole entry): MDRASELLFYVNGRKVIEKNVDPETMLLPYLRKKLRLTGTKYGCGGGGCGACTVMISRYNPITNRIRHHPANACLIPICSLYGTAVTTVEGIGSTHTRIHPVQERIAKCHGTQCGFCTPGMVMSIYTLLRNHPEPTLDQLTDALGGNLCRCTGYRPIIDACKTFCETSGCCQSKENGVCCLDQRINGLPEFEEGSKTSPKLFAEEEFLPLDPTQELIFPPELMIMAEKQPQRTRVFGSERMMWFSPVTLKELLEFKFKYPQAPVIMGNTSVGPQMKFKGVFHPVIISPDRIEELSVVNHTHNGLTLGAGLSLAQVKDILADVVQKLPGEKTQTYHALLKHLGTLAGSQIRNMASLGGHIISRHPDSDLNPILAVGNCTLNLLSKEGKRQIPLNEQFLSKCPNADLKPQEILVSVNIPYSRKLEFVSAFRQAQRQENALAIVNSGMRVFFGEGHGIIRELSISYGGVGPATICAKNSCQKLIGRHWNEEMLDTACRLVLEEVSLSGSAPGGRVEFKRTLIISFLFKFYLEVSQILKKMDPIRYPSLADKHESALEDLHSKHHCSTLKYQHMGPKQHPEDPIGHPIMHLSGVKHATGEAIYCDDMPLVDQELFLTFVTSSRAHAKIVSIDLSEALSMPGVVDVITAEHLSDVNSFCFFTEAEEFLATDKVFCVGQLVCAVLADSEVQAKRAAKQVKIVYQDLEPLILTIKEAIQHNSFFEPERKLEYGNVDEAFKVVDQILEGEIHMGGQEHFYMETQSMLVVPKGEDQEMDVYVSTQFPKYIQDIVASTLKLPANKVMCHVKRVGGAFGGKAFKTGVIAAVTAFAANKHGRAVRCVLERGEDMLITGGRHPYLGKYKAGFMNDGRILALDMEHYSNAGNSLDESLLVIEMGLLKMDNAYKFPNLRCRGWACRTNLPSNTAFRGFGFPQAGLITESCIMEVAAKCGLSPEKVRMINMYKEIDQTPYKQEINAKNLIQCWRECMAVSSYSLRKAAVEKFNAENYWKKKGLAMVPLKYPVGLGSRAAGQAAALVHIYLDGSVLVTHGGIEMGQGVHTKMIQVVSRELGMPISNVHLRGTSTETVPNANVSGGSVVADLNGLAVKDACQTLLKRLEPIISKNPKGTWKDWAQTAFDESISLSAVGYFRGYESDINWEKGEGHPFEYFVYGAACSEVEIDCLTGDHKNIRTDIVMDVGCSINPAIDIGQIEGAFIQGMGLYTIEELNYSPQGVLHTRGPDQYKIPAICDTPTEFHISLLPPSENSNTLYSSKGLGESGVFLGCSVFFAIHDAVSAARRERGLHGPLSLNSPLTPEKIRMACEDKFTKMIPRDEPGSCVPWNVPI
As to the kind of experiment: Inhibition of monkey aldehyde oxidase.

Data set [3] has as its target T2, Aldehyde oxidase 1 (Mus musculus, UniProt O54754).
T2 sequence (O54754 whole entry): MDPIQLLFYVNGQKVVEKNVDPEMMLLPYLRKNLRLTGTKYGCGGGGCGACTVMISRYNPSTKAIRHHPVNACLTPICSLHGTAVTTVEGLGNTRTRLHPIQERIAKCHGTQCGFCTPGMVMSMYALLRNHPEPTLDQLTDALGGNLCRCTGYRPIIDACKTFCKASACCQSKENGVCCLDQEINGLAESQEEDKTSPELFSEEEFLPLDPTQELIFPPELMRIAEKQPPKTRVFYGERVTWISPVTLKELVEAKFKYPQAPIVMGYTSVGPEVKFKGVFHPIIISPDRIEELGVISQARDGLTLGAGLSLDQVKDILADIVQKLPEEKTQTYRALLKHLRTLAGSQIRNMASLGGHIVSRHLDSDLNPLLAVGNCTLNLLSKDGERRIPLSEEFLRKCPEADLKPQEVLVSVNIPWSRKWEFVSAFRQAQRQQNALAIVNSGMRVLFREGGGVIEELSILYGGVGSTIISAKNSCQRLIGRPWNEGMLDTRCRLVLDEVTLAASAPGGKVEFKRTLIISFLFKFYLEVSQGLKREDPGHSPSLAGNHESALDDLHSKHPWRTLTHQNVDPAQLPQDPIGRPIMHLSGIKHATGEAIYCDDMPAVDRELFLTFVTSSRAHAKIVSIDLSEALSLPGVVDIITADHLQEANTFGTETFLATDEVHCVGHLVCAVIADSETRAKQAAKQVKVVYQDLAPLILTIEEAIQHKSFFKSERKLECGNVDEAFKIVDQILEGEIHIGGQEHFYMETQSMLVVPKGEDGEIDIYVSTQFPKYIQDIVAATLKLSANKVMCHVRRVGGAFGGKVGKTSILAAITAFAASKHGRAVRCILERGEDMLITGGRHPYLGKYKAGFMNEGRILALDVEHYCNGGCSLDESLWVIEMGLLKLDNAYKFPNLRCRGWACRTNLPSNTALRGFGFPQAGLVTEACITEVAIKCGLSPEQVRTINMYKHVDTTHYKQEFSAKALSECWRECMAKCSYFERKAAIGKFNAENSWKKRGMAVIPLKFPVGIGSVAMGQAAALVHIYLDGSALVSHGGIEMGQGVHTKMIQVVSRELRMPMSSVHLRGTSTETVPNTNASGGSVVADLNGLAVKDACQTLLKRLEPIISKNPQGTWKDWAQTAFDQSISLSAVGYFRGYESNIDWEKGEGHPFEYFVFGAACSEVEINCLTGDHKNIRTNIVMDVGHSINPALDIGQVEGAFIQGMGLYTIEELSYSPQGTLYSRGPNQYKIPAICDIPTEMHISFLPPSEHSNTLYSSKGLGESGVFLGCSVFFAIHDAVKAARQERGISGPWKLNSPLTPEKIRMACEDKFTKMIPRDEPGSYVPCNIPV
The data set is described as follows: Inhibition of mouse aldehyde oxidase.

For data set [4], the target named is T3, Aldehyde oxidase 1 (Rattus norvegicus, UniProt Q9Z0U5).
T3 sequence (Q9Z0U5 whole entry): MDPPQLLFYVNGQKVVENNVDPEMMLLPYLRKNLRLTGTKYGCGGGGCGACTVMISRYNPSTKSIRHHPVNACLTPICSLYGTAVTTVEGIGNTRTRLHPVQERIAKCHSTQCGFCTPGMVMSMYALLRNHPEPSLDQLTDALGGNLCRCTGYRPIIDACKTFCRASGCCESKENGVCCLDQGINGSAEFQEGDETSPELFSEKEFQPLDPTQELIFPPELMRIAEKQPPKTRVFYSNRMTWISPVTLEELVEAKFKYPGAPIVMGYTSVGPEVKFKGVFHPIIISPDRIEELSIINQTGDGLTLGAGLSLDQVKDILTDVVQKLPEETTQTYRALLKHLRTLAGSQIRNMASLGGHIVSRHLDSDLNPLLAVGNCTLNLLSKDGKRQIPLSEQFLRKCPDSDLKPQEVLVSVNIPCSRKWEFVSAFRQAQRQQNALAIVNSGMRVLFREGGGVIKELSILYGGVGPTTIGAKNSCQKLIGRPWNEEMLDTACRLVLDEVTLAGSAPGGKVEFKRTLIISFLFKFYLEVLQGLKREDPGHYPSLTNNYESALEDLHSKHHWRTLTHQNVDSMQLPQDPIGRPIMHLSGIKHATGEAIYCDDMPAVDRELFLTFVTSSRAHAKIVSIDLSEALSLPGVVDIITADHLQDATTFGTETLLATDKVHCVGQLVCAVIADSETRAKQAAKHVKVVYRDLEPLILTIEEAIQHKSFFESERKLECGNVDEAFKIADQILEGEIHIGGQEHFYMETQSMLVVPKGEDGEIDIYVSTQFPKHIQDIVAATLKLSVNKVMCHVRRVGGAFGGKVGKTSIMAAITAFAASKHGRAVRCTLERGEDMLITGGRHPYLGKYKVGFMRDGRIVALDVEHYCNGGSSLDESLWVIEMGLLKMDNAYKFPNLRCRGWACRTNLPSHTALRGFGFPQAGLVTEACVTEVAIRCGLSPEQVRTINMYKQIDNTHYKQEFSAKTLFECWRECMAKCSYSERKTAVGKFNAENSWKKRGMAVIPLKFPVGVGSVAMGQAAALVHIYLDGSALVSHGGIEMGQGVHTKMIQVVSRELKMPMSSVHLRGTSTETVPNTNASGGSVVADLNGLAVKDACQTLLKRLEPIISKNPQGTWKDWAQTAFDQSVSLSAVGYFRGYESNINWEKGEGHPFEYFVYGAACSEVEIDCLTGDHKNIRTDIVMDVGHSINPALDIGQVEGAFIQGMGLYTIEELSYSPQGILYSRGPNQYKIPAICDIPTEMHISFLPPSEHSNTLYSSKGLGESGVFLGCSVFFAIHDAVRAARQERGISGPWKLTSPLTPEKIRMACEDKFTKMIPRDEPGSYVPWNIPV
As to the kind of experiment: Inhibition of rat aldehyde oxidase.

A further data set has as its system Homo sapiens. The data set is described as follows: In-vivo intrinsic clearance in human. Type of data set: ADME, organism-based.
Substrate in data set [5]: CCN(C(C)=O)c1cccc(-c2ccnc3c(C#N)cnn23)c1
The data set is described as follows: Activity of aldehyde oxidase in human liver cytosol. The data set is classed as ADME, tissue-based.

Broadly, the bioavailability is the share of a dose that reaches the circulation, judged against a reference dose that is usually intravenous. `CCNC(=O)OC1CCN(c2n[nH]c(=O)c3cc(OC)c(OC)cc23)CC1` returned a bioavailability in data set [1] of 68%.

By IC50 is commonly meant the concentration at which inhibition is half-maximal. For the molecule `O=C(c1ccc(OCCN2CCCCC2)cc1)c1c(-c2ccc(O)cc2)sc2cc(O)ccc12` [RALOXIFENE], the IC50 worked out at 0.5 µM against Aldehyde oxidase 1 [2], 0.5 µM against Aldehyde oxidase 1 [3] and 1.1 µM against Aldehyde oxidase 1 [4].

In the case of `CCN(C(C)=O)c1cccc(-c2ccnc3c(C#N)cnn23)c1` [ZALEPLON], the CL with Homo sapiens is 5.4 L/h/kg.

B1: Aldehyde oxidase (Homo sapiens) (protein)
chain: MDRASELLFYVNGRKVIEKNVDPETMLLPYLRKKLRLTGTKYGCGGGGCGACTVMISRYNPITKRIRHHPANACLIPICSLYGAAVTTVEGIGSTHTRIHPVQERIAKCHGTQCGFCTPGMVMSIYTLLRNHPEPTLDQLTDALGGNLCRCTGYRPIIDACKTFCKTSGCCQSKENGVCCLDQGINGLPEFEEGSKTSPKLFAEEEFLPLDPTQELIFPPELMIMAEKQSQRTRVFGSERMMWFSPVTLKELLEFKFKYPQAPVIMGNTSVGPEVKFKGVFHPVIISPDRIEELSVVNHAYNGLTLGAGLSLAQVKDILADVVQKLPEEKTQMYHALLKHLGTLAGSQIRNMASLGGHIISRHPDSDLNPILAVGNCTLNLLSKEGKRQIPLNEQFLSKCPNADLKPQEILVSVNIPYSRKWEFVSAFRQAQRQENALAIVNSGMRVFFGEGDGIIRELCISYGGVGPATICAKNSCQKLIGRHWNEQMLDIACRLILNEVSLLGSAPGGKVEFKRTLIISFLFKFYLEVSQILKKMDPVHYPSLADKYESALEDLHSKHHCSTLKYQNIGPKQHPEDPIGHPIMHLSGVKHATGEAIYCDDMPLVDQELFLTFVTSSRAHAKIVSIDLSEALSMPGVVDIMTAEHLSDVNSFCFFTEAEKFLATDKVFCVGQLVCAVLADSEVQAKRAAKRVKIVYQDLEPLILTIEESIQHNSSFKPERKLEYGNVDEAFKVVDQILEGEIHMGGQEHFYMETQSMLVVPKGEDQEMDVYVSTQFPKYIQDIVASTLKLPANKVMCHVRRVGGAFGGKVLKTGIIAAVTAFAANKHGRAVRCVLERGEDMLITGGRHPYLGKYKAGFMNDGRILALDMEHYSNAGASLDESLFVIEMGLLKMDNAYKFPNLRCRGWACRTNLPSNTAFRGFGFPQAALITESCITEVAAKCGLSPEKVRIINMYKEIDQTPYKQEINAKNLIQCWRECMAMSSYSLRKVAVEKFNAENYWKKKGLAMVPLKFPVGLGSRAAGQAAALVHIYLDGSVLVTHGGIEMGQGVHTKMIQVVSRELRMPMSNVHLRGTSTETVPNANISGGSVVADLNGLAVKDACQTLLKRLEPIISKNPKGTWKDWAQTAFDESINLSAVGYFRGYESDMNWEKGEGQPFEYFVYGAACSEVEIDCLTGDHKNIRTDIVMDVGCSINPAIDIGQIEGAFIQGMGLYTIEELNYSPQGILHTRGPDQYKIPAICDMPTELHIALLPPSQNSNTLYSSKGLGESGVFLGCSVFFAIHDAVSAARQERGLHGPLTLNSPLTPEKIRMACEDKFTKMIPRDEPGSYVPWNVPI
The term Km denotes the substrate concentration at which the rate is half of its maximum. In general, Vmax refers to the top rate of the reaction or transport when substrate is in excess. With B1, in data set [5], the Km came to 124 µM and the Vmax was determined as 0.000564 µmol/min.
